“Also recorded” adds a separate entry of the source.
Tested on: mouse IL-6
Assay: IL-6 ELISA on culture medium of differentiated C2C12 cells exposed to a cytokine mixture (cytomix, CTX)
Type: cell-based
Settings: for % reduction IL-6: C2C12, 24 h pre-treatment, then 24 h with cytomix; for IL-6 / anti-inflammatory effect (FIG. 1): pre-treatment for 24 hours at 3.125 μM alone
Procedure: C2C12 Myoblasts purchased from ATCC (ref. CRL-1772) were seeded at 8000 cells per well in a 96 well plate (Greiner) using a DMEM Glutamax 4.5g D-glucose (Gibco, ref 31966021) supplemented with FIBS 10% (PanBiotech, ref P190902), 1% PenStrep (Biowest) and 1% Hepes (Biowest). Cells were then differentiated for 6 days using a differentiation medium (DMEM Glutamax 4.5g D-glucose (Gibco, ref 31966021), 2% Horse serum (Thermofisher, ref 160501229) 1% PenStrep and 1% Hepes). All media were sterilized with a 0.45 um filter unit (VWR). After 4 days of the differentiation cells were treated for 24 h with 1) Urolithin A (UA) resuspended in DMSO, 2) ginsenoside […]-3832) or 3) a combination of the two at the indicated doses. A cytokine mixture (“cytomix”) was added at day 5 in addition of the previous treatment for another 24 h, cytokines were respectively used at 5ng (mIFN-γ (Roche ref. 11276905001), TNF-α (Peprotech ref. 300-01A) and IL-1β (Proteintech ref. 200-01B)). The medium was collected and an ELISA for Interleukin-6 were performed following the instruction provided by the supplier (Proteintech ref. KE10007). In particular, the IL-6 ELISA kit is to be used to detect and quantify protein levels of endogenous mouse IL-6. The assay recognizes mouse IL-6. An antibody specific for mouse IL-6 has been pre-coated onto the microwells. The IL-6 protein in samples is captured by the coated antibody after incubation. Following extensive washing, another antibody of biotinylated specific for mouse IL-6 is added to detect the captured mouse IL-6 protein. For signal development, Streptavidin-HRP is added, followed by Tetramethyl-benzidine (TMB) reagent. Solution containing sulfuric acid is used to stop colour development and the colour intensity which is proportional to the quantity of bound protein is measurable at 450 nm with the correction wavelength set at 630 nm, using a microplate plate reader (Fluostar Optima, BMG Labtech). We exposed of C2C12 to a mix of pro-inflammatory cytokines (cytomix, CTX) to induce inflammation signals. Interleukin-6 (IL-6), a multifunctional cytokine produced in cells and induced by a variety of stimulating signals. IL-6 production and release in the media is a proxy of the inflammation induced by treatment with the cytokines part of the cytomix (Tosato & Jones (1990) Blood 75(6), 1305-10). With cytomix treatment, we observed a significant increase in Interleukin 6 (IL-6) secretion, measured as the concentration of IL-6 in the cell culture media.

| Compound | % reduction IL-6 (CTX 5 ng vs. Rg1 3.125 μM + CTX) | IL-6 / anti-inflammatory effect (FIG. 1) (cytomix-treated C2C12) | IL-6 / anti-inflammatory effect (FIG. 1) (cytomix-treated C2C12, listed as Rg1) | IL-6 (FIG. 1) (pre-treatment for 24 hours at 12.5 μM, cytomix-treated C2C12) | IL-6 (FIG. 1) (pre-treatment for 24 hours at 100 μM, cytomix-treated C2C12) | IL-6, dose dependence (FIG. 1) (pre-treatment for 24 hours, 3.125 to 100 μM, cytomix-treated C2C12) | % reduction IL-6 (CTX 5 ng vs. UA 6.25 μM + CTX) | IL-6 secretion (FIG. 1) (pre-treatment for 24 hours at 6.25 μM, cytomix-treated C2C12) |
| --- | --- | --- | --- | --- | --- | --- | --- | --- |
| CC(C)=CCC[C@](C)(O[C@@H]1O[C@H](CO)[C@@H](O)[C@H](O)[C@H]1O)[C@H]1CC[C@]2(C)[C@@H]1[C@H](O)C[C@@H]1[C@@]3(C)CC[C@H](O)C(C)(C)[C@@H]3[C@@H](O[C@@H]3O[C@H](CO)[C@@H](O)[C@H](O)[C@H]3O)C[C@]12C [Ginsenoside Rg1, ginsenoside Rg1] | +9.8% | no effects | did not show any anti-inflammatory effect alone; also recorded: no effects | non-significant trend in reduction | significant decrease | dose dependent decrease in IL-6 | – | – |
| O=c1oc2cc(O)ccc2c2ccc(O)cc12 [Urolithin A] | – | – | – | – | – | – | −16% | significantly decreased IL-6 secretion |

— patent publication US20250161391A1, “UROLITHIN COMBINATION” (Amazentis SA, priority 2023, published 2025)
